Assay results taken from patent US6277831A, “1,4-benzothiazepine-1,1-dioxide derivatives substituted by sugar residues, process for their preparation, pharmaceuticals comprising these compounds, and their use” (Aventis Pharma Deutschland GmbH, priority 1999, dated 2001).

These molecules were tested on bile acid transport in the ileum (assay: Ileum perfusion test: inhibition of bile acid (3H-taurocholic acid) transport in the ileum of anesthetized rats). Conditions: rat ileum perfusion; 3 mM taurocholic acid, pH 7.4, 37° C.; 3H-TCA in bile at 80-90 min vs 30-40 min; diastereomeric mixtures unless indicated otherwise.
Assay type: in vivo, Male Wistar rats
Experimental: The biological testing of compounds according to the invention was carried out by means of a perfusion test. This test investigates the action of the compounds on the bile acid transport in the ileum. The diastereomeric mixtures of the compounds were tested unless indicated otherwise.
The Perfusion Test was Carried Out as Described Below:
Male Wistar rats (weight range 250-350 g) were anesthetized with urethane (1.5 g/kg i.p.) and the bile duct was cannulated with a polyethylene tube. Eight centimeters proximal to the ileocecal flap, an incision was made into the ileum and a silicone adapter for tubes was sewn in. A second incision with implantation of a corresponding silicone adapter was made in the cecum. Silicone tubes were attached to the adapter in order to perfuse the ileum in an orthograde and open manner (nonrecirculating) with perfusion buffer at a perfusion rate of 1 ml/min.
The perfusion tubes were filled with perfusion buffer (137 mM NaCl, 0.9 mM CaCl2, 0.51 mM MgCl2, 8.1 mM Na2 HPO4, 2.7 mM KCl, 1.47 mM KH2 PO4) (pH 7.4), 1% (v/v) ethanol, and 1% DMSO. The perfusion buffer contained the test compounds in concentrations as indicated, or the vehicle alone. The buffer was preheated to 37° C. The perfusion buffer contained 3 mM taurocholic acid (TCA), which in turn was labeled with 1000 dpm/μl of ^3 H TCA as a marker.
Study Design and Evaluation of the Results
An experimental batch was chosen which allowed the determination of the inhibition of bile acid transport in the individual animal. The bile was collected at 10 min intervals over a period of 90 min (in the case of a following wash-out phase for testing the reversibility over a period of up to 160 min). The perfusion of the vehicle-containing buffer solution over a period of 40 min (pre-test substance) was followed by a perfusion with perfusion buffer which contained the test compound in the concentration to be tested (to 90 min).
For the calculation of the percentage inhibition by the test compound, the dpms (disintegrations per min of ^3 H-TCA) in the bile from 80-90 min (end of the perfusion with the test substance) were related to the collection period 30-40 min during the preliminary phase, when the excretion of the ^3 H-TCA in the control phase had reached its maximum and plateau. The EC50 (=effective concentration 50) was calculated as the effective concentration between the inhibitory values of different concentrations which inhibited the maximum bile acid excretion by 50%.
An EC50 of 90 nM was found for `CCCCC1(CC)CS(=O)(=O)c2ccc(N(C)C)cc2C(c2cccc(NC(=O)[C@H](O)[C@@H](O)[C@H](O)[C@H](O)CO)c2)N1` (some centres unmarked) [Example 1] in this work.
An EC50 of 720 nM was found for `CCCCC1(CC)CS(=O)(=O)c2ccc(N(C)C)cc2C(c2cccc(NC(=O)CCCCCCCCCCNC(=O)[C@H](O)[C@@H](O)[C@H](O)[C@H](O)CO)c2)N1` (some centres unmarked) [Example 4] in this work.
An EC50 of 400 nM was found for `CCCCC1(CCCC)CS(=O)(=O)c2ccc(N(C)C)cc2C(c2cccc(NC(=O)[C@H](O)[C@@H](O)[C@H](O)[C@H](O)CO)c2)N1` (some centres unmarked) [Example 5] in this work.
An EC50 of 1400 nM was found for `CCCCC1(CCCC)CS(=O)(=O)c2ccc(N(C)C)cc2C(c2cccc(NC(=O)CCCCNC[C@H](O)[C@@H](O)[C@H](O)[C@H](O)CO)c2)N1` (some centres unmarked) [Example 7] in this work.
An EC50 of 9800 nM was found for `CCCC[C@]1(CC)CS(=O)(=O)c2cc(OC)c(OC)cc2[C@@H](c2ccccc2)N1` [Comparison Example 8, reference compound] in this work.
An EC50 of 220 nM was found for `CCCCC1(CC)CS(=O)(=O)c2ccc(N(C)C)cc2C(c2cccc(NC(=O)CCCCNC[C@H](O)[C@@H](O)[C@H](O)[C@H](O)CO)c2)N1` (some centres unmarked) [Example 3] in this work.
An EC50 of 150 nM was found for `CCCCC1(CC)CS(=O)(=O)c2ccc(N(C)C)cc2C(c2cccc(NC(=O)[C@H](O)[C@@H](O)[C@H](O)[C@H](O)CO)c2)N1O` (some centres unmarked) [Example 2] in this work.
An EC50 of 90 nM was found for `CCCCC1(CCCC)CS(=O)(=O)c2ccc(N(C)C)cc2C(c2cccc(NC(=O)[C@H](O)[C@@H](O)[C@H](O)[C@H](O)CO)c2)N1O` (some centres unmarked) [Example 6] in this work.
